The results in this text go back to patent publication US10933141B2, “Formulations with reduced degradation of polysorbate” (Genentech, Inc., priority 2015, dated 2021).

One data set concerns Lipoprotein Lipase (LPL). Briefly: Enzymatic degradation of PS20 by LPL, PS20 by RP-ELSD. To be noted: 15% w/v HP-β-CD; 0.02% PS20, pH 5.5; 70 μg/mL LPL, 5 hours, room temperature. It counts as biochemical, Burkholderia sp. As for the experimental part:
(§1) Polysorbate concentration was determined using reverse phase ultra-performance liquid chromatography using evaporative light scattering detection (RP-ELSD). Samples were analyzed using an Agilent 1100 series high performance liquid chromatography system (HPLC) fitted with a Waters Oasis MAX cartridge column (20×2.1 mm, 30 μm particle size). The HPLC system was set up with a switching valve directing column flow-through to either waste or a Varian 380-LC evaporative light scattering detector set to 100° C. The mobile phases consisted of 2% formic acid in water (Pump A) and 2% formic acid in isopropanol (Pump B). […] In order to quantitate the PS20 concentration, a standard curve was generated by injecting 20 μL of solutions containing between 0% w/v and 0.4% w/v PS20. For excipients which affected the migration time of PS20 through the column, PS20 standard curve solutions containing the relevant excipient were included in the analysis to facilitate accurate quantitation.
The effect of 15% HP-β-CD on the enzymatic degradation of PS20 was measured. […]
PPL digestion was stopped by heat inactivation in an 85° C. water bath for 30 minutes. LPL and RLE digestion could not be stopped by heat inactivation, so the samples were analyzed immediately for PS20 content. […]

Data set [1] is described as follows: Solubilization of particles from oxidative PS20 degradation (HIAC). It counts as physicochemical. Conditions: 5% and 15% (w/v) HP-β-CD; 0.02% (w/v) PS20 stored 27 months at 5° C. Here is the method:
Subvisible particles were measured using a HIAC 9703 particle counter equipped with an HRDL-150 detector and a 1 mL syringe. Performance of the instrument was verified with NIST-traceable 2 μm Polystyrene bead standards at 3000 counts/mL before each measurement session. The HIAC instrument was configured to a 10 mL/min flow rate, 0.1 mL tare volume, and 0.4 mL sample volume. The samples were analyzed using 4 runs of 0.4 mL sips, with the first run of each sample was discarded to prevent measurement error due to sample carryover. Results were reported as the average values for 1.4, 2, 5, 10, 15, and 25, 50 μm analysis filter sizes.
Different concentrations of HP-β-CD were tested for their ability to solubilize particles produced as a result of oxidative PS20 degradation. Solutions of concentrated HP-β-CD were prepared in triplicate in pH 5.5 buffer. Protein-free samples containing 0.02% (w/v) PS20 were stored for 27 months at 5° C., resulting in oxidative PS20 degradation and the formation of visible and subvisible particles related to PS20 degradation products. Each degraded PS20 solution was divided into 3 aliquots and concentrated excipient was spiked into each the aliquots. […] The following day, subvisible particle counts were measured using a HIAC 9703 particle counter.

The next data set deals with T1, PPL enzyme (Sus scrofa, UniProt P00591).
T1 construct: purchased Sigma Aldrich Inc. (St. Louis, Mo.)
T1 sequence (P00591 1-450): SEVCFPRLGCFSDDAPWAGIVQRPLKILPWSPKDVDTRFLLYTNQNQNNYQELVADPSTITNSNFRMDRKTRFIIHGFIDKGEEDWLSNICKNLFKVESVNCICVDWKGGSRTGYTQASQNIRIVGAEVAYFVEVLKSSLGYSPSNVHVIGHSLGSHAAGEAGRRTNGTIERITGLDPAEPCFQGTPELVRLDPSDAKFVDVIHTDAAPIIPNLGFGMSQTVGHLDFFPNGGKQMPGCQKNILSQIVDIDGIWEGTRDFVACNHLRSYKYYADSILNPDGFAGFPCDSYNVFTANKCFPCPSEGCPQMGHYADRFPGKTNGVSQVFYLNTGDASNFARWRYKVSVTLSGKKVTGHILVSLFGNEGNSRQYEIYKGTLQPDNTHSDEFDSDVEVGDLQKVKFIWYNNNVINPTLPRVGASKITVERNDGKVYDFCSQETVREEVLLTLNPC
Briefly: PPL degradation of PS20 in mAb, BsAb and sFAb samples, PS20 by RP-ELSD. It counts as biochemical, porcine. To be noted: 5% and 15% HPβCD, BsAb, sFAb 20 mg/mL and control, 0.02% PS20, 20 mM histidine acetate pH 5.5, 15 μg/mL PPL 4.5 hours. Here is the method: as §1
The impact of various protein molecule classes (e.g., monoclonal antibody (mAb), single-Fab antibody (sFAb), and bispecific antibody(BsAb)) was assessed on the ability of cyclodextrins to decrease enzymatic PS20 degradation. […] Each sample was analyzed for PS20 concentration using high performance liquid chromatography with an inline evaporative light scattering detector. […]

Turning to “2-hydroxypropyl-β-cyclodextrin [HP-β-CD]”, the “Polysorbate 20 (Relative %)” value in the data set on Lipoprotein Lipase (LPL) is listed as 77.5%. For the same substance, the “SVP relative to control sample (0% HP-β-CD)” value in data set [1] is reported as “significant reduction in SVP”. For the same substance, the “mitigation of catalytic PS20 degradation across molecular formats (in words)” value at PPL enzyme is recorded as “equally effective at mitigating catalytic PS20 degradation”.
